pIC50: −log10 of the molar value.
Biological target: T1, Aromatase (Homo sapiens, UniProt P11511)
T1 sequence (P11511 whole entry): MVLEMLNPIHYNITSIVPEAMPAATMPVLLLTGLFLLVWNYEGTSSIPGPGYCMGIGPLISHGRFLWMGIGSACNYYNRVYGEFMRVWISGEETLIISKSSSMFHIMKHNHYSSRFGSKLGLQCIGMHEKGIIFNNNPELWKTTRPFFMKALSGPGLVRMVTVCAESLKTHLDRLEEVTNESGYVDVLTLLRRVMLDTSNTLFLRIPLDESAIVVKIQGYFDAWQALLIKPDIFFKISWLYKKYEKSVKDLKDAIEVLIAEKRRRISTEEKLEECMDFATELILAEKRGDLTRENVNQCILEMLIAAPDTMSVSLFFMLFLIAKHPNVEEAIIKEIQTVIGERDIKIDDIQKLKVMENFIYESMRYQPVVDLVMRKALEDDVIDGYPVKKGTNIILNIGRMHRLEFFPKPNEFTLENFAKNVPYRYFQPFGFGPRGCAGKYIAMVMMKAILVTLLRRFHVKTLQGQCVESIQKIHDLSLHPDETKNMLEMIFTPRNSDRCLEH
Test: Aromatase Inhibition Activity Assay
Details: pH 7.5; 37 °C
Experimental: Briefly, concentrated stock solutions of test compounds were prepared in acetonitrile. Hundred microliters of samples containing serial dilutions of test compounds (dilution factor of 3 between samples) and cofactor mixture (0.4 U/mL glucose-6-phosphate dehydrogenase; 16.2 μm NADP+; 825 μm MgCl2; 825 μm glucose-6- phosphate; 50 μm citrate buffer, pH 7.5) was prepared in a 96-well plate. […] The plate was covered and incubated for 30 min at 37 °C. Seventy-five microliters of 0.5 m Tris base was then added to stop the reaction, and the fluorescence of the formed de-methylated MFC was measured with a plate reader (Spectra Max Gemini; Molecular Devices, Sunnyvale, CA, USA).

| pIC50 | Structure (SMILES) |
| --- | --- |
| 8.46 | Cc1c(-c2csc(O)n2)c(=O)n(-c2ccccc2)n1C [2-Hydroxy-4-([4-(1,2-dihydro-1,5-dimethyl-2-phenyl-3-oxo-3H-pyrazol-4-yl)thiazole (25)] |
| 8.34 | Cc1c(C(=O)c2sc(=N)sc2Nc2ccccc2)c(=O)n(-c2ccccc2)n1C [4-[4-(1,2-Dihydro-1,5-dimethyl-2-phenyl-3-oxo-3H-pyrazol-4-ylcarbonyl)]-5-phenylamino-1,3-dithiole-2-imine (7)] |
| 8.41 | Cc1c(C(=O)c2nn3c(nc(=O)c4ccccc43)s2)c(=O)n(-c2ccccc2)n1C [2-[4-(1,2-Dihydro-1,5-dimethyl-2-phenyl-3-oxo-3H-pyrazol-4-yl]-1,3,4-thiazolo[3,2-a]-1,3-quinazolin-2-one (10b)] |

The next lines start with the compound.

| Structure (SMILES) | pIC50 |
| --- | --- |
| Cc1c(C(=O)CSC#N)c(=O)n(-c2ccccc2)n1C [1,2-Dihydro-1,5-dimethyl-2-phenyl-4-thiocyanatoacetyl-3H-pyrazol-3-one (2)] | 8.17 |
| Cc1c(-c2csc(Cl)n2)c(=O)n(-c2ccccc2)n1C [2-Chloro-4-[4-(1,2-dihydro-1,5-dimethyl-2-phenyl-3-oxo-3H-pyrazol-4-yl)thiazole (26)] | 8.48 |

From BindingDB's records for doi:10.1111/cbdd.12812 (Yueyang Vocational Technical College, 2016)
